Laboratory results taken from US8921397B2, “Benzofurane-piperidine compounds” (Hoffmann-La Roche Inc., priority 2011, dated 2014).
pKi: −log10 of the molar value.

Key:
human D2 receptor = human D2 receptor (Homo sapiens (Human), UniProt P14416); test: Radioligand binding ([3H]-spiperone) to human D2 receptor, HEK293 EBNA membranes; conditions: HEK293 EBNA cells expressing human D2 receptor
In short: (§1)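 Membranes from transiently transfected HEK293 EBNA cells (~7.5 μg protein/well) were incubated 1 h at RT with [3H]-spiperone (~0.7 nM for D2, 0.5 nM for D3) and ten compound concentrations (10 μM–0.1 nM) in Tris/NaCl/MgCl2/CaCl2 buffer pH 7.4. Filtration and scintillation counting, nonspecific with 10 μM spiperone; Ki via Cheng-Prusoff.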

human D3 receptor = human D3 receptor (Homo sapiens (Human), UniProt P35462); test: Radioligand binding ([3H]-spiperone) to human D3 receptor, HEK293 EBNA membranes; conditions: HEK293 EBNA cells expressing human D3 receptor
In short: as §1

human 5-HT2A receptor = human 5-HT2A receptor (Homo sapiens (Human), UniProt P28223); test: Radioligand binding ([3H]-ketanserin) to human 5-HT2A receptor, HEK293 EBNA membranes; conditions: HEK293 EBNA cells expressing human 5-HT2A receptor
In short: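 Membranes from HEK293 EBNA cells transiently expressing the human receptor were incubated 1 h at RT with ~0.7 nM (D2) or 0.5 nM (D3) [3H]-spiperone, or 1.1 nM [3H]-ketanserin (5-HT2A), plus ten compound concentrations (10 μM–0.1 nM). Nonspecific binding was set with 10 μM spiperone; Ki was derived from IC50 via Cheng-Prusoff.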

human D2 receptor, sequence (P14416 whole entry): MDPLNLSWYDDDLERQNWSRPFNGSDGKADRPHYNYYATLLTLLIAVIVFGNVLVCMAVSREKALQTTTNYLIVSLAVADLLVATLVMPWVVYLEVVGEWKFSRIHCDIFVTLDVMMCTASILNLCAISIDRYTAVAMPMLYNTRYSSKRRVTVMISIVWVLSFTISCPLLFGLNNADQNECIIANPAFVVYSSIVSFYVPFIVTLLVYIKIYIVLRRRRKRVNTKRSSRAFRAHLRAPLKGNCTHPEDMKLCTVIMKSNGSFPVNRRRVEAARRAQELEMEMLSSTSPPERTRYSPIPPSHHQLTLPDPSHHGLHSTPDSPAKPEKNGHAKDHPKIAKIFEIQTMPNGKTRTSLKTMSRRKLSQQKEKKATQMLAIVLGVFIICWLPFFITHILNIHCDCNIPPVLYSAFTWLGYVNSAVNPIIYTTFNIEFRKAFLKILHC
human 5-HT2A receptor, sequence (P28223 whole entry): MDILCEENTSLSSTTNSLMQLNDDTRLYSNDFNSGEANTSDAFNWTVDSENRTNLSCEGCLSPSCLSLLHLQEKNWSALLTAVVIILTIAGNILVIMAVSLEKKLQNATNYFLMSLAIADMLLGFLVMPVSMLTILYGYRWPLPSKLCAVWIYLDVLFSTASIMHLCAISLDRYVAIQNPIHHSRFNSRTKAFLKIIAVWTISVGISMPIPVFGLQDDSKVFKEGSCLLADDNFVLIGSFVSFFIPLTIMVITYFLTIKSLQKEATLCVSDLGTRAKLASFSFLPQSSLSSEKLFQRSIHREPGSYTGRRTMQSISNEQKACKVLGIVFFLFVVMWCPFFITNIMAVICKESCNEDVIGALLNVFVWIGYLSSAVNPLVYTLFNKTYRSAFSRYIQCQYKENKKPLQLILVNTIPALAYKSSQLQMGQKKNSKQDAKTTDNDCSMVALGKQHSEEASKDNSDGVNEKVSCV
human D3 receptor, sequence (P35462 whole entry): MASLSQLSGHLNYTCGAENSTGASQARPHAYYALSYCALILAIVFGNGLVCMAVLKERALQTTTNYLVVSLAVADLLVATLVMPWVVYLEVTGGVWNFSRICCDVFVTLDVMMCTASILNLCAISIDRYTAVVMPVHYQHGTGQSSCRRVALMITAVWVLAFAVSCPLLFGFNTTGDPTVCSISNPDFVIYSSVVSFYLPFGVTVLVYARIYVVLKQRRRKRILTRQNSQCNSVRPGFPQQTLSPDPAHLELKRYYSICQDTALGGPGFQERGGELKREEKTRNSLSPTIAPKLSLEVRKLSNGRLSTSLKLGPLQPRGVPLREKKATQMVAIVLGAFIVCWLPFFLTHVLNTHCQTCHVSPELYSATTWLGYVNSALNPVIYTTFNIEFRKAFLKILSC

Row | D2 Ki (human D2 receptor) | SMILES | pKi (human D2 receptor) | pKi (human D3 receptor) | pKi (human 5-HT2A receptor) | melting point [°C]
1 |  | Cc1nc(-c2ccc(C(=O)N[C@H]3CC[C@H](CCN4CCC(c5coc6ccccc56)CC4)CC3)cc2)no1 [Example 61, trans-N-{4-[2-(4-Benzofuran-3-yl-piperidin-1-yl)-ethyl]-cyclohexyl}-4-(5-methyl-[1,2,4]oxadiazol-3-yl)-benzamide] | 6.64 | 8.54 | 7.82 | 194
2 |  | CN1CCN(c2ccc(C(=O)N[C@H]3CC[C@H](CCN4CCC(c5coc6ccccc56)CC4)CC3)cc2)CC1 [Example 62, trans-N-{4-[2-(4-Benzofuran-3-yl-piperidin-1-yl)-ethyl]-cyclohexyl}-4-(4-methyl-piperazin-1-yl)-benzamide] | 7.30 | 8.22 | 8.05 | 242
3 |  | O=C(N[C@H]1CC[C@H](CCN2CCC(c3coc4ccccc34)CC2)CC1)c1ccc(-c2ccccc2)cc1 [Example 63, Biphenyl-4-carboxylic acid trans-{4-[2-(4-benzofuran-3-yl-piperidin-1-yl)-ethyl]-cyclohexyl}-amide] | 7.66 | 8.47 | 8.28 | 235
4 |  | O=C(N[C@H]1CC[C@H](CCN2CCC(c3coc4ccccc34)CC2)CC1)c1ccc(-c2cccnc2)cc1 [Example 64, trans-N-{4-[2-(4-Benzofuran-3-yl-piperidin-1-yl)-ethyl]-cyclohexyl}-4-pyridin-3-yl-benzamide] | 7.78 | 8.34 | 7.89 | 224
5 |  | O=C(N[C@H]1CC[C@H](CCN2CCC(c3coc4ccccc34)CC2)CC1)c1ccc(N2CCOCC2)nc1 [Example 65, trans-N-{4-[2-(4-Benzofuran-3-yl-piperidin-1-yl)-ethyl]-cyclohexyl}-6-morpholin-4-yl-nicotinamide] | 7.29 | 8.46 | 8.12 | 215
6 |  | O=C(N[C@H]1CC[C@H](CCN2CCC(c3coc4ccccc34)CC2)CC1)c1ccc(N2CCS(=O)(=O)CC2)cc1 [Example 66, trans-N-{4-[2-(4-Benzofuran-3-yl-piperidin-1-yl)-ethyl]-cyclohexyl}-4-(1,1-dioxo-1λ6-thiomorpholin-4-yl)-benzamide] | 7.72 | 8.47 | 8.00 | 269
7 |  | O=C(N[C@H]1CC[C@H](CCN2CCC(c3coc4ccccc34)CC2)CC1)c1cnc(N2CCOCC2)cn1 [Example 67, 5-Morpholin-4-yl-pyrazine-2-carboxylic acid trans-{4-[2-(4-benzofuran-3-yl-piperidin-1-yl)-ethyl]-cyclohexyl}-amide] | 6.98 | 8.11 | 8.09 | 202
8 |  | O=C(N[C@H]1CC[C@H](CCN2CCC(c3coc4ccccc34)CC2)CC1)c1ccc(-n2cccc2)cc1 [Example 68, trans-N-{4-[2-(4-Benzofuran-3-yl-piperidin-1-yl)-ethyl]-cyclohexyl}-4-pyrrol-1-yl-benzamide] | 7.47 | 8.34 | 7.99 | 212
9 |  | Cc1ccc(C(=O)N[C@H]2CC[C@H](CCN3CCC(c4coc5ccccc45)CC3)CC2)cn1 [Example 69, trans-N-{4-[2-(4-Benzofuran-3-yl-piperidin-1-yl)-ethyl]-cyclohexyl}-6-methyl-nicotinamide] | 7.55 | 8.60 | 8.29 | 203
10 |  | N#Cc1ccc(C(=O)N[C@H]2CC[C@H](CCN3CCC(c4coc5ccccc45)CC3)CC2)cc1 [Example 70, trans-N-{4-[2-(4-Benzofuran-3-yl-piperidin-1-yl)-ethyl]-cyclohexyl}-4-cyano-benzamide] | 7.82 | 8.57 | 8.23 | 195
11 |  | CC(C)(C)Oc1ccc(C(=O)N[C@H]2CC[C@H](CCN3CCC(c4coc5ccccc45)CC3)CC2)cc1 [Example 71, trans-N-{4-[2-(4-Benzofuran-3-yl-piperidin-1-yl)-ethyl]-cyclohexyl}-4-tert-butoxy-benzamide] | 6.77 | 8.67 | 8.25 | 186
12 |  | CO[C@H]1CC[C@H](CC(=O)N[C@H]2CC[C@H](CCN3CCC(c4coc5ccccc45)CC3)CC2)CC1 [Example 72, trans-N-{4-[2-(4-Benzofuran-3-yl-piperidin-1-yl)-ethyl]-cyclohexyl}-2-trans-(4-methoxy-cyclohexyl)-acetamide] | 7.17 | 8.51 | 8.09 | 179
13 |  | O=C(N[C@H]1CC[C@H](CCN2CCC(c3coc4ccccc34)CC2)CC1)c1ccc2ncccc2c1 [Example 73, Quinoline-6-carboxylic acid trans-{4-[2-(4-benzofuran-3-yl-piperidin-1-yl)-ethyl]-cyclohexyl}-amide] | 6.99 | 8.62 | 7.96 | 192
14 |  | O=C(Cc1ccc2c(c1)OCO2)N[C@H]1CC[C@H](CCN2CCC(c3coc4ccccc34)CC2)CC1 [Example 74, trans-2-Benzo[1,3]dioxol-5-yl-N-{4-[2-(4-benzofuran-3-yl-piperidin-1-yl)-ethyl]-cyclohexyl}-acetamide] | 7.03 | 8.78 | 7.94 | 177
15 |  | CS(=O)(=O)c1ccc(C(=O)N[C@H]2CC[C@H](CCN3CCC(c4coc5ccccc45)CC3)CC2)s1 [Example 75, 5-Methanesulfonyl-thiophene-2-carboxylic acid trans-{4-[2-(4-benzofuran-3-yl-piperidin-1-yl)-ethyl]-cyclohexyl}-amide] | 7.22 | 8.41 | 8.11 | 214
16 |  | O=C(CC1COC1)N[C@H]1CC[C@H](CCN2CCC(c3coc4ccccc34)CC2)CC1 [Example 76, trans-N-{4-[2-(4-Benzofuran-3-yl-piperidin-1-yl)-ethyl]-cyclohexyl}-2-oxetan-3-yl-acetamide] | 7.47 | 8.79 | 8.28 | 197
17 |  | CC(C)(C)C1CCC(C(=O)N[C@H]2CC[C@H](CCN3CCC(c4coc5ccccc45)CC3)CC2)CC1 (stereo partly drawn) [Example 77, 4-tert-Butyl-cyclohexanecarboxylic acid trans-{4-[2-(4-benzofuran-3-yl-piperidin-1-yl)-ethyl]-cyclohexyl}-amide] | 6.46 | 8.02 | 8.22 | 199
18 |  | O=C(N[C@H]1CC[C@H](CCN2CCC(c3coc4ccccc34)CC2)CC1)C12CC3CC(CC(C3)C1)C2 [Example 78, Adamantane-1-carboxylic acid trans-{4-[2-(4-benzofuran-3-yl-piperidin-1-yl)-ethyl]-cyclohexyl}-amide] | 6.89 | 7.90 | 7.76 | 200
19 |  | O=C(N[C@H]1CC[C@H](CCN2CCC(c3coc4ccccc34)CC2)CC1)C1CCC(C(F)(F)F)CC1 (stereo partly drawn) [Example 79, 4-Trifluoromethyl-cyclohexanecarboxylic acid trans-{4-[2-(4-benzofuran-3-yl-piperidin-1-yl)-ethyl]-cyclohexyl}-amide] | 7.14 | 8.17 | 7.95 | 190
20 |  | CC(C)Cc1ccc(C(=O)N[C@H]2CC[C@H](CCN3CCC(c4coc5ccccc45)CC3)CC2)cc1 [Example 80, trans-N-{4-[2-(4-Benzofuran-3-yl-piperidin-1-yl)-ethyl]-cyclohexyl}-4-isobutyl-benzamide] | 6.54 | 8.38 | 8.57 | 190
21 |  | CCc1ccc(C(=O)N[C@H]2CC[C@H](CCN3CCC(c4coc5ccccc45)CC3)CC2)cc1 [Example 81, trans-N-{4-[2-(4-Benzofuran-3-yl-piperidin-1-yl)-ethyl]-cyclohexyl}-4-ethyl-benzamide] | 6.69 | 8.88 | 8.60 | 192
22 | inact. | O=C(N[C@H]1CC[C@H](CCN2CCC(c3coc4ccccc34)CC2)CC1)c1ccc(C2CCCCC2)cc1 [Example 82, trans-N-{4-[2-(4-Benzofuran-3-yl-piperidin-1-yl)-ethyl]-cyclohexyl}-4-cyclohexyl-benzamide] |  | 7.38 | 8.24 | 230
23 |  | CC(C)c1ccc(C(=O)N[C@H]2CC[C@H](CCN3CCC(c4coc5ccccc45)CC3)CC2)cc1 [Example 83, trans-N-{4-[2-(4-Benzofuran-3-yl-piperidin-1-yl)-ethyl]-cyclohexyl}-4-isopropyl-benzamide] | 6.40 | 8.32 | 8.59 | 188
24 |  | O=C(N[C@H]1CC[C@H](CCN2CCC(c3coc4ccccc34)CC2)CC1)c1ccc(C2CC2)cc1 [Example 84, trans-N-{4-[2-(4-Benzofuran-3-yl-piperidin-1-yl)-ethyl]-cyclohexyl}-4-cyclopropyl-benzamide] | 6.45 | 7.85 | 8.67 | 199
25 |  | O=C(Cc1noc2ccccc12)N[C@H]1CC[C@H](CCN2CCC(c3coc4ccccc34)CC2)CC1 [Example 85, trans-2-Benzo[d]isoxazol-3-yl-N-{4-[2-(4-benzofuran-3-yl-piperidin-1-yl)-ethyl]-cyclohexyl}-acetamide] | 6.61 | 6.84 | 8.09 | 175
